Test systems include CCRF-CEM; EKVX; HCT-116; HCT-15; HL-60; HT-29; IGROV-1; NCI-H522; OVCAR-8; RXF 393; SF-295; SF-539; SK-MEL-2; SK-MEL-5; SW-620; UACC-62; CAKI-1; SF-268.
What all share (experiment): NCI anticancer screen, dose series, 48 h

We go through twelve compounds from ChEMBL document CHEMBL1201862, “PubChem BioAssay data set” (2004).

Molecules are shown by their SMILES.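 Method: 48-hour compound exposure of cells in 96-well plates, five concentrations, linear interpolation of endpoints. At the GI50, growth is halved.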 The source made the active and inactive calls. Cut-off read from the data, not from the text of the source: active = GI50 up to about 1.1 µM and inactive = higher. A value given as a limit tells only on which side of the number the result lay.

On to `CC(C)(C)C1CCN(C(=O)c2ccccc2)CC1`, for which the GI50 in the experiment on CCRF-CEM was > 100 µM (inactive); in the experiment on EKVX, > 100 µM (inactive); with HCT-116, 53.8 µM (inactive); with HCT-15, 57.5 µM; in the experiment with HL-60, 32.9 µM (inactive); in the experiment with HT-29, > 100 µM (inactive). Besides, the GI50 was > 100 µM (inactive) in the experiment with IGROV-1; 62.7 µM (inactive) with NCI-H522; > 100 µM (inactive) in the experiment on OVCAR-8; 76 µM (inactive) in the experiment on RXF 393; > 100 µM (inactive) in the experiment on SF-295; > 100 µM (inactive) in the experiment with SF-539. Besides, the GI50 in the experiment with SK-MEL-2 was > 100 µM (inactive); with SK-MEL-5, 28.8 µM (inactive); in the experiment on SW-620 it was > 100 µM (inactive); in the experiment with UACC-62 it was > 100 µM (inactive).

`O=c1/c(=C/c2cccc([N+](=O)[O-])c2)sc2nc3ccccc3n12`: the GI50 in the experiment with CAKI-1 is > 10 µM (inactive); in the experiment on CCRF-CEM, > 100 µM (inactive); with EKVX it was 58.7 µM (inactive); in the experiment with HCT-116, 37.3 µM (inactive); in the experiment on HCT-15 it was more than 100 µM; with HL-60, > 100 µM (inactive). The GI50 in the experiment on HT-29 was > 100 µM (inactive); in the experiment with IGROV-1 it was > 10 µM (inactive); with OVCAR-8, > 100 µM (inactive); with RXF 393, > 100 µM (inactive); with SF-268, 39.2 µM (inactive); in the experiment with SF-295, > 10 µM (inactive). For the same compound, the GI50 in the experiment on SK-MEL-2 was > 100 µM (inactive); in the experiment with SK-MEL-5 it was > 10 µM (inactive); in the experiment with SW-620, > 100 µM (inactive); with UACC-62 it was 0.446 µM (active).

As to `COC(=O)CCC(NC(=S)N/N=C/c1cccs1)C(=O)OC` (configuration not stated), the GI50 with EKVX was > 100 µM (inactive); in the experiment with HCT-116, > 100 µM (inactive); with HCT-15 it was more than 100 µM; in the experiment with HL-60, > 100 µM (inactive); in the experiment on HT-29 it was > 100 µM (inactive); with IGROV-1 it was > 100 µM (inactive). For the same compound, the GI50 in the experiment with NCI-H522, in the experiment with OVCAR-8, with RXF 393, in the experiment on SF-268, with SF-295 and in the experiment with SF-539 was > 100 µM (inactive) throughout. In addition, the GI50 in the experiment with SK-MEL-2, in the experiment on SK-MEL-5, with SW-620 and with UACC-62 was > 100 µM (inactive) each time.

As for `CCOC(=O)c1cnc2cc3cccccc3n2c1=O`, the GI50 in the experiment with CAKI-1 was > 100 µM (inactive); in the experiment with CCRF-CEM, > 100 µM (inactive); in the experiment on EKVX, > 100 µM (inactive); with HCT-116, 39.3 µM (inactive); in the experiment on HCT-15, more than 100 µM; in the experiment on HL-60 it was > 100 µM (inactive). The GI50 with HT-29, with IGROV-1, in the experiment with OVCAR-8, with RXF 393, in the experiment on SF-268 and with SF-295 was > 100 µM (inactive) in each case. The GI50 in the experiment on SF-539, in the experiment on SK-MEL-2, in the experiment with SW-620 and in the experiment on UACC-62 was > 100 µM (inactive) throughout.

Take `CCCCCCCCC1C(C)c2c([nH]c3ccccc23)C2C(=O)N(c3ccccc3)C(=O)C21` (configuration not stated): the GI50 in the experiment with CAKI-1 was 14 µM (inactive); in the experiment with CCRF-CEM, 2.76 µM (inactive); in the experiment with EKVX it was 21.1 µM (inactive); in the experiment with HCT-116 it was 3.27 µM (inactive); in the experiment with HCT-15 it was 11.2 µM; in the experiment on HL-60 it was 3.27 µM (inactive). In addition, the GI50 was 4.7 µM (inactive) in the experiment on HT-29; 17.6 µM (inactive) in the experiment on IGROV-1; 11.1 µM (inactive) in the experiment on OVCAR-8; 2.38 µM (inactive) with RXF 393; 15.7 µM (inactive) with SF-295; 17.3 µM (inactive) in the experiment on SF-539. Besides, the GI50 is 16 µM (inactive) in the experiment on SK-MEL-2, 16.3 µM (inactive) with SK-MEL-5, 14.8 µM (inactive) in the experiment with SW-620 and 18.9 µM (inactive) with UACC-62.

For `CC(C)(C)[C@H]1CC[C@@](O)(c2ccccc2)CC1.CC(C)(C)[C@H]1CC[C@](O)(c2ccccc2)CC1`, the GI50 is 26.5 µM (inactive) in the experiment on CCRF-CEM; 23.1 µM (inactive) with EKVX; 22.2 µM (inactive) in the experiment on HCT-116; 23.9 µM in the experiment on HCT-15; 16.3 µM (inactive) with HL-60; 16.2 µM (inactive) with HT-29. Besides, the GI50 with IGROV-1 is 25.9 µM (inactive); with NCI-H522, 23.4 µM (inactive); in the experiment with OVCAR-8, 18.7 µM (inactive); with RXF 393 it was 18.6 µM (inactive); with SF-295, 36.4 µM (inactive); in the experiment with SF-539 it was 18.1 µM (inactive). The GI50 is 14.7 µM (inactive) in the experiment on SK-MEL-2, 14.8 µM (inactive) in the experiment on SK-MEL-5, 3.74 µM (inactive) in the experiment with SW-620 and 19.1 µM (inactive) in the experiment on UACC-62.

In the case of `C/C(=N\NS(=O)(=O)c1c(C)cc(C)cc1C)c1ccc[n+]([O-])n1`, the GI50 in the experiment with CAKI-1 is 4.78 µM (inactive); in the experiment on CCRF-CEM, 3.96 µM (inactive); in the experiment with EKVX it was 12.4 µM (inactive); in the experiment with HCT-116, 13.1 µM (inactive); in the experiment on HCT-15, 14.7 µM; in the experiment with HL-60, 6.12 µM (inactive). For the same compound, the GI50 in the experiment on HT-29 is 18.3 µM (inactive); with IGROV-1, 31.6 µM (inactive); in the experiment with NCI-H522, 6.61 µM (inactive); in the experiment on OVCAR-8, 19.6 µM (inactive); in the experiment on SF-268, 20.1 µM (inactive); in the experiment with SF-295, 62.2 µM (inactive). Further, the GI50 in the experiment on SF-539 is 13.6 µM (inactive); in the experiment with SK-MEL-5, 41.9 µM (inactive); in the experiment on SW-620, 8.05 µM (inactive); with UACC-62, 16.4 µM (inactive).

Take `NC(=O)CCC(Nc1c2ccccc2[n+]([O-])c2ccccc12)C(=O)O` (configuration not stated): the GI50 was 42.5 µM (inactive) in the experiment on CCRF-CEM; > 100 µM (inactive) in the experiment with EKVX; 38.3 µM (inactive) with HCT-116; 46.7 µM in the experiment on HCT-15; 11.1 µM (inactive) in the experiment on HL-60; > 100 µM (inactive) in the experiment on IGROV-1. Further, the GI50 is 29.9 µM (inactive) in the experiment on NCI-H522; 63 µM (inactive) in the experiment with OVCAR-8; 64.7 µM (inactive) in the experiment on SF-268; > 100 µM (inactive) with SF-295; > 100 µM (inactive) with SK-MEL-2; 32 µM (inactive) in the experiment with SK-MEL-5. Also, the results for the GI50 with SW-620 and in the experiment on UACC-62 were > 100 µM (inactive) and 51.3 µM (inactive), respectively.

Turning to `C1=Cc2nc1c(-c1ccccc1)c1ccc([n-]1)c(-c1ccccc1)c1nc(c(-c3ccccc3)c3ccc([n-]3)c2-c2ccccc2)C=C1.[Zn+2]`, the GI50 was > 100 µM (inactive) in the experiment on CAKI-1; > 100 µM (inactive) in the experiment on CCRF-CEM; > 100 µM (inactive) in the experiment with EKVX; > 100 µM (inactive) with HCT-116; more than 100 µM with HCT-15; 45 µM (inactive) with HL-60. Further, the GI50 in the experiment with HT-29, in the experiment with IGROV-1, with NCI-H522, with OVCAR-8, in the experiment on SF-268 and in the experiment with SF-295 was > 100 µM (inactive) in each case. Further, the GI50 in the experiment on SF-539, with SK-MEL-2, in the experiment with SK-MEL-5, with SW-620 and in the experiment on UACC-62 was > 100 µM (inactive) throughout.

Turning to `O=C(O)CCC1c2[nH]c3ccccc3c2CCN1Cc1ccccc1` (configuration not stated), the GI50 in the experiment with CAKI-1 is > 100 µM (inactive); in the experiment on CCRF-CEM, > 100 µM (inactive); in the experiment with EKVX, > 100 µM (inactive); in the experiment on HCT-116, > 100 µM (inactive); in the experiment with HCT-15, more than 100 µM; in the experiment on HL-60, > 100 µM (inactive). For the same compound, the GI50 with HT-29, with IGROV-1, with NCI-H522, with OVCAR-8, in the experiment on SF-268 and in the experiment with SF-295 was > 100 µM (inactive) throughout. Moreover, the GI50 in the experiment on SF-539, in the experiment with SK-MEL-2, in the experiment with SK-MEL-5, in the experiment on SW-620 and in the experiment with UACC-62 was > 100 µM (inactive) throughout.

For `COc1ccc2oc(C(=O)O)c3c2c1CCC3`, the GI50 in the experiment on CAKI-1 was > 100 µM (inactive); in the experiment with CCRF-CEM it was > 100 µM (inactive); in the experiment with EKVX, > 100 µM (inactive); in the experiment with HCT-116, > 100 µM (inactive); with HCT-15, more than 100 µM; with HL-60, > 100 µM (inactive). In addition, the GI50 in the experiment with HT-29, with IGROV-1, in the experiment with OVCAR-8, in the experiment with RXF 393, in the experiment with SF-295 and with SF-539 was > 100 µM (inactive) in each case. For the same compound, the GI50 in the experiment on SK-MEL-5, in the experiment with SW-620 and in the experiment on UACC-62 was > 100 µM (inactive) each time.

Take `O=C1/C(=C/c2ccccc2)CNC/C1=C\c1ccccc1`: the GI50 in the experiment on CAKI-1 is 5.65 µM (inactive); with CCRF-CEM, 1.37 µM (inactive); in the experiment with EKVX, 4.78 µM (inactive); with HCT-116, 0.184 µM (active); with HCT-15, 0.612 µM; with HL-60, 0.406 µM (active). The GI50 in the experiment on HT-29 is 0.841 µM (active); with IGROV-1, 1.87 µM (inactive); in the experiment on NCI-H522 it was 1.02 µM (active); with OVCAR-8, 1.71 µM (inactive); in the experiment on SF-268, 2.2 µM (inactive); in the experiment with SF-295, 2.07 µM (inactive). For the same compound, the GI50 in the experiment on SF-539 was 1.56 µM (inactive); with SK-MEL-2, 3.21 µM (inactive); in the experiment with SK-MEL-5, 1.91 µM (inactive); with SW-620 it was 0.441 µM (active); in the experiment on UACC-62, 1.76 µM (inactive).
